# Earlier results, collected in patent publication US7955624B2, “Compositions and methods for increasing adipose metabolism, lipolysis or lipolytic metabolism via thermogenesis” (HHC Formulations Ltd., priority 2006, dated 2011).
# Columns and labels:
# [1] = mice
# [2] = active treatment versus placebo
# [3] = mice; remark: listed apart in the source
# [4] = not given; remark: listed apart in the source
compound,measurement,setting,value
Cn1c(=O)c2c(ncn2C)n(C)c1=O [caffeine],basal metabolic rate,humans,increase the basal metabolic rate
same,weight loss,"obese women, caffeine supplementation",Significant weight loss
evodiamine,secretion of adrenergic signaling molecules,bovine adrenal medulla,increase the secretion
same,body fat,[1],decrease body fat
same,energy expenditure,[1],increase energy expenditure
same,lipid mobilization,[1],increase
"O=C(O)c1cccnc1 [Niacin, nicotinic acid]",high-density lipoprotein cholesterol (HDL-C),[2],increase
same,low-density lipoprotein cholesterol (LDL-C),[2],decrease
same,total cholesterol,[2],decrease
same,triglyceride levels,[2],decrease
"CN(C)CCO [deanol, dimethylaminoethanol]",plasma and tissue levels of choline,[3],increase
"O=P(O)(O)O[C@H]1[C@H](OP(=O)(O)O)[C@@H](OP(=O)(O)O)[C@H](OP(=O)(O)O)[C@@H](OP(=O)(O)O)[C@H]1OP(=O)(O)O [inositol hexaphosphate, Inositol hexaphosphate]","reducing triglycerides, cholesterol and lipogenic enzymes",[4]; 0.02% to 10% phytic acid in a high sucrose diet,dose-dependent response
same,food intake and growth,"[4]; highest dose, 10% phytic acid",reduction
